Test systems include HCT-116 colon; OVCAR-4 ovarian; T-47D breast; NCI/ADR-RES ovarian; SW-620 colon; DU-145 prostate; 786-0 renal; SK-MEL-28 melanoma; HCT-15 colon; A498 renal.
What all share (assay): DTP human tumour cell line panel, 48 h

Consider 19 compounds from PubChem BioAssay (NCI).

Each structure is given as a SMILES string.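 96-well plates; 48 h exposure; 5 concentrations. Endpoints by linear interpolation between flanking doses. Not reached: highest tested concentration assigned. Abbreviation: GI50, concentration required for 50% inhibition of growth. TGI denotes the concentration required for complete inhibition of growth.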 Where a SMILES comes first, the peptide text is derived from it. [ ]: non-standard residue; d: D form. The star is where a group is joined. Phe(4-NO2) = N[CH](Cc1ccc([N+](=O)[O-])cc1)C(=O)O; Boc = CC(C)(C)OC(=O)*; OBn = c1ccc(CO*)cc1

Regarding `O=c1[nH]nc(Cc2ccccc2)n1/N=C/c1c[nH]c2ccccc12`, the total growth inhibition concentration (TGI) in the experiment on HCT-116 colon, in the experiment with OVCAR-4 ovarian, in the experiment with T-47D breast, in the experiment with NCI/ADR-RES ovarian, with SW-620 colon and in the experiment with DU-145 prostate was over 100 µM throughout. In addition, the concentration for total growth inhibition (TGI) with 786-0 renal, in the experiment with SK-MEL-28 melanoma, with HCT-15 colon and in the experiment with A498 renal was over 100 µM throughout.
Take `C=CC[C@H]1[C@@H](O[Si](C)(C)C(C)(C)C)[C@H](n2ccc(=O)[nH]c2=O)O[C@@H]1CO[Si](C)(C)C(C)(C)C`: the TGI with HCT-116 colon was found to be 3.11 µM; with OVCAR-4 ovarian, 5.97 µM; with T-47D breast, 9.11 µM; in the experiment with NCI/ADR-RES ovarian, 4.95 µM; with SW-620 colon, 3.39 µM; with DU-145 prostate, 6.64 µM. Further, the TGI with 786-0 renal came out at 3.01 µM; in the experiment with SK-MEL-28 melanoma it was 3.01 µM; in the experiment on HCT-15 colon it was 3.63 µM; in the experiment with A498 renal it was 7.83 µM.
Regarding `Brc1ccc(N=NN2CCCCC2)cc1`, the total growth inhibition concentration (TGI) in the experiment with HCT-116 colon, in the experiment on OVCAR-4 ovarian, with T-47D breast, in the experiment with NCI/ADR-RES ovarian, in the experiment with SW-620 colon and with DU-145 prostate was over 100 µM in each case. For the same compound, the TGI with 786-0 renal, in the experiment with HCT-15 colon and in the experiment with A498 renal was over 100 µM in each case.
Turning to `CC(C)(CN)CN`, the total growth inhibition concentration (TGI) in the experiment on HCT-116 colon, in the experiment with OVCAR-4 ovarian, in the experiment on T-47D breast, in the experiment on NCI/ADR-RES ovarian, in the experiment with SW-620 colon and with DU-145 prostate was over 100 µM each time. Also, the concentration for total growth inhibition (TGI) in the experiment with 786-0 renal, with SK-MEL-28 melanoma, in the experiment with HCT-15 colon and in the experiment with A498 renal was over 100 µM throughout.
Consider `Oc1ccc(/C=C\c2nnc(/C=C\c3ccc(O)c(O)c3)s2)cc1O`, for which the total growth inhibition concentration (TGI) in the experiment on HCT-116 colon is 13 µM; in the experiment with OVCAR-4 ovarian, 16 µM; in the experiment with T-47D breast it was 5.37 µM; with NCI/ADR-RES ovarian, over 59.2 µM; with SW-620 colon, 13.3 µM; with DU-145 prostate it was 18.8 µM. The TGI in the experiment with 786-0 renal was found to be 38.6 µM; with SK-MEL-28 melanoma, 25.2 µM; with HCT-15 colon, 16.9 µM; with A498 renal it was 26.2 µM.
On to `Cn1ccnc1S/C(=C\C=C(C#N)C#N)c1ccc(Cl)cc1`, for which the total growth inhibition concentration (TGI) is 1.58 µM in the experiment on HCT-116 colon; over 17.9 µM in the experiment with OVCAR-4 ovarian; over 100 µM with T-47D breast; 7.85 µM in the experiment with NCI/ADR-RES ovarian; 11.9 µM with SW-620 colon; 10.9 µM in the experiment with DU-145 prostate. Moreover, the TGI in the experiment on 786-0 renal turned out to be 5.21 µM; in the experiment with HCT-15 colon, 9.11 µM; in the experiment on A498 renal, 3.16 µM.
In the case of `CC(C)/C(Cl)=N/OC(=O)Nc1ccc(F)c(Cl)c1`, the TGI in the experiment with HCT-116 colon was 6.77 µM; in the experiment on OVCAR-4 ovarian, 24.3 µM; with T-47D breast, 12.7 µM; in the experiment on NCI/ADR-RES ovarian it was 29.3 µM; with SW-620 colon, 3.47 µM; in the experiment on DU-145 prostate, 30.5 µM. Also, the concentration for total growth inhibition (TGI) with 786-0 renal was determined as 2.96 µM; in the experiment with SK-MEL-28 melanoma, 5.46 µM; with HCT-15 colon, 4.16 µM; in the experiment on A498 renal it was 33.3 µM.
Consider `COc1ccc(N2C=Nn3c(nc4sc(C)c(C)c4c3=O)C2)cc1`, for which the concentration for total growth inhibition (TGI) with HCT-116 colon, in the experiment with OVCAR-4 ovarian, with T-47D breast, with NCI/ADR-RES ovarian, in the experiment on SW-620 colon and in the experiment on DU-145 prostate was over 100 µM throughout. The concentration for total growth inhibition (TGI) in the experiment on 786-0 renal, with SK-MEL-28 melanoma, in the experiment with HCT-15 colon and in the experiment on A498 renal was over 100 µM in each case.
Turning to `CCC1C(=O)C[C@H]2[C@@H]3C(O)CC4=CC(=O)CC[C@]4(C)[C@H]3CC[C@]12C` (stereo not given in full), the TGI with HCT-116 colon, in the experiment on OVCAR-4 ovarian, in the experiment on T-47D breast, with NCI/ADR-RES ovarian, with SW-620 colon and with DU-145 prostate was over 50 µM each time. Moreover, the TGI in the experiment on 786-0 renal, in the experiment on SK-MEL-28 melanoma, in the experiment with HCT-15 colon and with A498 renal was over 50 µM in each case.
On to `COc1cc(-c2nc3cc(F)ccc3s2)ccc1O`, for which the TGI with HCT-116 colon is over 100 µM; with OVCAR-4 ovarian, over 100 µM; with T-47D breast, 15.3 µM; in the experiment on NCI/ADR-RES ovarian, over 100 µM; in the experiment with SW-620 colon, over 100 µM; in the experiment with DU-145 prostate, over 100 µM. In addition, the concentration for total growth inhibition (TGI) was over 100 µM with 786-0 renal, over 100 µM in the experiment with SK-MEL-28 melanoma, over 100 µM in the experiment on HCT-15 colon and 83.8 µM with A498 renal.
Consider `COC(=O)/C=C/c1ccccc1N=[S@](C)(=O)c1ccc(C)cc1`, for which the concentration for total growth inhibition (TGI) was 71.8 µM with HCT-116 colon; over 100 µM in the experiment with OVCAR-4 ovarian; over 100 µM in the experiment on T-47D breast; 72.5 µM in the experiment on NCI/ADR-RES ovarian; over 100 µM with SW-620 colon; over 100 µM in the experiment on DU-145 prostate. Further, the concentration for total growth inhibition (TGI) in the experiment with 786-0 renal is over 100 µM; with SK-MEL-28 melanoma it was over 100 µM; with HCT-15 colon, over 100 µM; in the experiment on A498 renal it was 43.8 µM.
Regarding `Cn1c(=O)c2c(nc(NCCCCl)n2CC(=O)O)n(C)c1=O`, the concentration for total growth inhibition (TGI) with HCT-116 colon, in the experiment on OVCAR-4 ovarian, with T-47D breast, with NCI/ADR-RES ovarian, with SW-620 colon and with DU-145 prostate was over 100 µM throughout. Also, the concentration for total growth inhibition (TGI) in the experiment on 786-0 renal, with SK-MEL-28 melanoma, with HCT-15 colon and with A498 renal was over 100 µM throughout.
In the case of `CC(C)Oc1c(-c2c(OC(C)C)c(=O)c2=O)c(=O)c1=O`, the TGI in the experiment on HCT-116 colon is over 51 µM; with OVCAR-4 ovarian it was over 62.9 µM; with T-47D breast, over 100 µM; in the experiment on NCI/ADR-RES ovarian it was 26.8 µM; in the experiment with SW-620 colon, over 62 µM; in the experiment on DU-145 prostate it was over 100 µM. In addition, the TGI is over 66 µM with 786-0 renal, over 100 µM in the experiment with SK-MEL-28 melanoma, over 100 µM with HCT-15 colon and over 100 µM in the experiment on A498 renal.
Take `Cc1cnoc1NC1=CC(=O)C(=O)c2ccccc21`: the total growth inhibition concentration (TGI) in the experiment on HCT-116 colon is 70.8 µM; in the experiment with OVCAR-4 ovarian it was over 100 µM; in the experiment with T-47D breast, over 100 µM; with NCI/ADR-RES ovarian, 70.9 µM; in the experiment on SW-620 colon, 80.4 µM; in the experiment on DU-145 prostate it was 61.2 µM. The TGI with 786-0 renal, in the experiment with SK-MEL-28 melanoma, in the experiment on HCT-15 colon and with A498 renal was over 100 µM throughout.
Regarding `COC(=O)CCC(NC(=O)OC(C)(C)C)C(=O)NC(Cc1ccc([N+](=O)[O-])cc1)C(=O)NCC(=O)OCc1ccccc1` (stereo not given) (Boc-Glu(OMe)-[Phe(4-NO2)]-Gly-OBn; configuration not given here), the TGI in the experiment with HCT-116 colon, with OVCAR-4 ovarian, in the experiment with T-47D breast, with NCI/ADR-RES ovarian, in the experiment with SW-620 colon and with DU-145 prostate was over 100 µM each time. For the same compound, the TGI in the experiment on 786-0 renal, in the experiment on SK-MEL-28 melanoma, in the experiment on HCT-15 colon and with A498 renal was over 100 µM each time.
For the compound `COc1cc2c3cc1Oc1c(O)c(OC)cc4c1[C@H](Cc1ccc(cc1)Oc1cc(ccc1O)C[C@H]3N(C)CC2)N(C)CC4`, the TGI with HCT-116 colon amounted to 22.4 µM; in the experiment with OVCAR-4 ovarian, 48 µM; in the experiment with T-47D breast, 46.1 µM; in the experiment with NCI/ADR-RES ovarian, 78.4 µM; in the experiment with SW-620 colon it was 57.3 µM; in the experiment on DU-145 prostate it was 37.5 µM. The total growth inhibition concentration (TGI) in the experiment with 786-0 renal came to 21.7 µM; with SK-MEL-28 melanoma, 39.2 µM; in the experiment with HCT-15 colon, 59.5 µM; in the experiment on A498 renal, 31.5 µM.
In the case of `CCN(CC)Cc1nc2sc3c(c2c(=O)n1-c1ccccc1)CCCC3`, the concentration for total growth inhibition (TGI) turned out to be 39.4 µM in the experiment on HCT-116 colon; 97.4 µM in the experiment on OVCAR-4 ovarian; 44.7 µM in the experiment with T-47D breast; 62.1 µM with NCI/ADR-RES ovarian; 37.3 µM with SW-620 colon; 47.8 µM with DU-145 prostate. Further, the TGI in the experiment with 786-0 renal is 32.2 µM; with SK-MEL-28 melanoma, over 100 µM; in the experiment on HCT-15 colon it was 51.7 µM; in the experiment with A498 renal it was 45.2 µM.
For the compound `CC(=O)O[C@H]1CC[C@@]2(C)C(=CC[C@@H]3[C@@H]2CC[C@]2(C)C(c4cccnc4)=CC[C@@H]32)C1`, the GI50 in the experiment on HCT-116 colon was 4.49 µM; in the experiment on OVCAR-4 ovarian it was 4.61 µM; with T-47D breast, 2.81 µM; in the experiment on NCI/ADR-RES ovarian it was 3.99 µM; in the experiment on SW-620 colon it was 5.81 µM; with DU-145 prostate, 22.3 µM. Also, the GI50 in the experiment with SK-MEL-28 melanoma was 3.53 µM; in the experiment with HCT-15 colon, 4.48 µM; in the experiment on A498 renal, 10.4 µM. Further, the total growth inhibition concentration (TGI) was over 100 µM with HCT-116 colon; over 100 µM in the experiment on OVCAR-4 ovarian; 55.7 µM with T-47D breast; 34.2 µM with NCI/ADR-RES ovarian; over 100 µM in the experiment on SW-620 colon; over 100 µM with DU-145 prostate. Moreover, the values for the TGI with SK-MEL-28 melanoma, with HCT-15 colon and in the experiment with A498 renal were over 100 µM, over 100 µM and 74 µM, respectively.
Take `Cc1ccc2c(=O)cc(-c3csc4ccccc34)[nH]c2n1`: the TGI in the experiment with HCT-116 colon is 9.38 µM; in the experiment on T-47D breast, over 100 µM; in the experiment on NCI/ADR-RES ovarian it was 0.569 µM; in the experiment with SW-620 colon it was over 100 µM; in the experiment with DU-145 prostate, 1.09 µM; in the experiment on 786-0 renal, 16 µM. For the same compound, the total growth inhibition concentration (TGI) was over 100 µM in the experiment on SK-MEL-28 melanoma, 13.4 µM with HCT-15 colon and 1.1 µM in the experiment with A498 renal.
